# Experimental data reported in publication PMC10914731, “Homo-BacPROTAC-induced degradation of ClpC1 as a strategy against drug-resistant mycobacteria” (Nature Communications, 2024).
# Values joined by “and” are separate entries in the source; they are usually repeats but may differ in a detail not shown here. Equal values may be shown once. Read-outs that look alike come from different tables or passages of the source.
# Key:
# Mtb (moxR) FNDR-M1 = assay: microbe, parasite or virus in culture; type: cell-based
# Msm 700084 = assay: microbe, parasite or virus in culture; type: cell-based; settings: Mycolicibacterium smegmatis, 700084; read-out: MIC Msm 700084
# Mtb ATCC 35825 = assay: microbe, parasite or virus in culture; type: cell-based
# Mycobacterium fortuitum = assay: microbe, parasite or virus in culture; type: cell-based
# Staphylococcus aureus = assay: MIC ESKAPES panel, Staphylococcus aureus; type: cell-based
# Protocol: Minimum inhibitory concentration (MIC) against ESKAPES panel of Gram positive and Gram negative pathogens (Enterococcus faecium, Staphylococcus aureus, Klebsiella pneumoniae, Acinetobacter baumannii, Pseudomonas aeruginosa, Enterobacter cloacae and Salmonella typhimurium [ESKAPES panel]) were determined at the FNDR by the standard broth dilution method [CLSI, M100]. […] Mueller Hinton broth (MHB) medium was used to grow ESKAPES panel strains. The individual cultures were added as 200 μL (inoculum of 3–7 × 10^5 cfu/ml) to the respective assay plates in each well to all columns, except the media control (200 μL of medium). […] The assay plates were incubated at 37 °C, and the results were noted on the 2nd day as turbidometric readout. The clear wells indicated inhibition of growth, while the turbid wells indicated uninhibited growth.
# [1] = tested on: Mtb (katG del) ATCC 35822; assay: microbe, parasite or virus in culture; type: cell-based; settings: Mycobacterium tuberculosis
# in vivo = type: in vivo, BALB/cAnNCrl mice
# Protocol: The in-life experimental procedures were conducted in strict compliance with German and European animal welfare legislation in an AAALAC-accredited facility. Male BALB/cAnNCrl mice (Charles River Laboratories Research Models and Services, 97633 Sulzfeld, Germany) were used. Animals were 9 weeks old at dosing with a body weight of 21.6–24.3 g. Animals were delivered free of pathogens according to FELASA recommendations with a health certificate provided by the breeder. Upon receipt, the state of health and sex was checked. Animals acclimatized for at least 5 days before the commencement of the in-life phase. During acclimation, animals were group-housed in individually ventilated cages, on birch wood granulate bedding with species-specific enrichment (nesting material, mouse igloo, gnawing wood). During experimental conduct, animals were housed in conventional cages with elevated grid floors. Grid floor was used to avoid contamination with test item material excreted via urine and feces and subsequent reuptake during fur grooming. No bedding and enrichment were provided except a cage divider, which can be used as a shelter. Animals always had unlimited access to food and water and received a pelleted, total pathogen-free maintenance diet and tap drinking water, sterilized by filter.
# On the day before dosing, test item(s) were suspended in kleptose (20% in WFI) under continuous stirring (3.0 mg/ml). Following 2 min vortexing and 1 h stirring, the formulation was sonicated at 60 °C for 30 min and stirred at ambient temperature overnight. Before dosing, the formulation was vortexed for 2 min followed by ultraturrax treatment for 2 min.
# Male BALB/cAnNCrl mice (n = 3 per test item and administration route) received a bolus dose of the formulated test item(s) (1 mg/kg iv, 30 mg/kg po) at t = 0 h, and whole blood samples were collected subsequently (35 µl at 0.1 (iv) / 0.25 (po), 0.5, 1, 2, 4, 6 h; 600 µl at sacrifice after 24 h). Animals were euthanized by exsanguination in deep isoflurane anesthesia. Whole blood samples were immediately stored on ice at about 4 °C. Plasma was separated by centrifugation at approximately 10,000 × g for 5 m at +4 °C. Centrifugation of each blood sample was started within 10 m after collection. A single aliquot of at least 15 µL of plasma was prepared and immediately stored at −20 ± 5 °C.
# Sample proteins were precipitated with ACN (1 + 12, v/v) containing internal standard, and supernatants analyzed by quantitative UPLC-MS/MS: Phenomenex Luna Omega C18, 2.1 × 50 mm, 1.6 µm, 40 °C, gradient between 10% - 90% ACN with 0.1% formic acid. LogD determination: Lipophilicity of the test items, expressed as chromLogD7.5, was assessed by measuring their chromatographic retention times on C18-material. The chromatographic retention versus logD7.5 values of a series of thirteen n-alkan-2-ones (2-butanone – 2-hexadecanone) served as lipophilicity calibration.
# [2] = Microsomal stability, human; type: in vitro ADME
# Outline: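 Compound (1 µmol/l) was incubated at 37 °C with 0.5 mg/ml liver microsomes in 100 mM Tris-HCl pH 7.5, 6.5 mM MgCl2 and 1 mM NADPH. Reactions were quenched with acetonitrile at several time points and parent remaining quantified by HPLC-MS/MS; first-order half-lives were converted to clearance as %Qh via the well-stirred model.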
# Mycobacterium abscessus = assay: microbe, parasite or virus in culture; type: cell-based
# [3] = single well replicates, listed as 8 (UdSBAI-0545)
# [4] = Experiment 2, three replicate columns
# [5] = oral gavage 30 mg/kg, mice, Mean, BLOQ <1.00 nmol/L
smiles,measurement,setting,value
COC(c1ccccc1)C1NC(=O)C(C)NC(=O)C(CC(C)CO)N(C)C(=O)C(Cc2cn(Cc3cn(CCOCCOCCOCCOCCn4cc(Cn5cc(CC6NC(=O)C(C(C)C)NC(=O)C(CC(C)C)N(C)C(=O)C(C(C)C)NC(=O)C(C(OC)c7ccccc7)NC(=O)C(C)NC(=O)C(CC(C)CO)N(C)C6=O)c6ccccc65)nn4)nn3)c3ccccc23)NC(=O)C(C(C)C)NC(=O)C(CC(C)C)N(C)C(=O)C(C(C)C)NC1=O (stereo not drawn) [Compound 8],MIC,"Mtb (moxR) FNDR-M1; M. tuberculosis FNDR-M1, single well replicates",0.195 µM
same,MIC,"Mtb (moxR) FNDR-M1; Mycobacterium tuberculosis, M. tuberculosis FNDR-M1, single well replicates",0.195 µM
same,MIC,"Mtb (moxR) FNDR-M1; Mycobacterium tuberculosis, Mtb (moxR) FNDR-M1, mean ± SD, n = 3 well replicates",0.2 µM
same,MIC,Msm 700084,8.3 ± 5.1 µM
same,MIC,"Mtb ATCC 35825; Mycobacterium tuberculosis, ATCC35825, mean, n = 2 well replicates",< 0.1 µM and < 0.2 µg/mL
same,MIC,"Mtb ATCC 35825; Mycobacterium tuberculosis, ATCC35825, single well replicates",< 0.21 µg/mL and < 0.1 µM
same,MIC,Mtb ATCC 35825; [3],<0.1 µM
same,MIC Mtb ATCC 35825,Mtb ATCC 35825; [3],<0.21 µg/mL
same,MIC,"Mycobacterium fortuitum; Experiment 1, listed as 8 (UdSBI-0545), read-out: MIC Mycobacterium fortuitum",>50 µM
same,MIC (µg/ml) Mycobacterium fortuitum,Mycobacterium fortuitum; [4],>108.53 µg/mL
same,MIC,"Mycobacterium fortuitum; Experiment 2, three replicate columns, read-out: MIC (µM) Mycobacterium fortuitum",>50 µM
same,MIC,"Mycobacterium fortuitum; Mycolicibacterium fortuitum, Experiment 1, read-out: MIC Mycobacterium fortuitum",> 109 µg/mL
same,MIC,"Mycobacterium fortuitum; Mycolicibacterium fortuitum, Experiment 2, three replicate columns, read-out: MIC (µM) Mycobacterium fortuitum",> 50 µM
same,MIC,"Mycobacterium fortuitum; Mycolicibacterium fortuitum, Experiment 2, three replicate columns, read-out: MIC (µg/ml) Mycobacterium fortuitum",> 109 µg/mL
same,MIC,"Mycobacterium fortuitum; Mycolicibacterium fortuitum, mean ± SD, read-out: MIC Mycobacterium fortuitum",> 50 µM
same,MIC,"Staphylococcus aureus; Gram-Positive Bacteria, replicates 1-3, listed as 8 (UdSBI-0545)",>50 µM
same,MIC,"Staphylococcus aureus; Staphylococcus aureus, Gram positive, n = 3 well replicates",> 50 µM
same,MIC,"Staphylococcus aureus; Staphylococcus aureus, Gram-Positive Bacteria, replicates 1-3",> 109 µg/mL
same,MIC,"[1]; ATCC35822, M. tuberculosis ATCC 35822, single well replicates",0.195 µM
same,MIC,"[1]; ATCC35822, Mtb (katG del) ATCC 35822, mean ± SD, n = 3 well replicates",0.2 µM
same,Plasma concentration 0.5 h,in vivo; [5],19.4 nM
same,Plasma concentration 1 h,in vivo; [5],18.1 nM
same,Plasma concentration 2 h,in vivo; [5],26.0 nM
same,Plasma concentration 4 h,in vivo; [5],31.8 nM
same,Plasma concentration 6 h,in vivo; [5],32.5 nM
same,Plasma concentration 24 h,in vivo; [5],96.7 nM
same,Plasma concentration […],in vivo; [5],25.7 nM
same,Plasma concentration 24 h,"in vivo; oral gavage, individual animals 1-3, BLOQ <1.00 nmol/L, listed as 8 (UdSBI-0545)",101 nM and 92.4 nM
same,Cmax/Dose,"in vivo; oral gavage, mice, Mean",10.4 nM/nmol/kg
same,tmax,"in vivo; oral gavage, mice, Mean",24.0 h
same,AUC0-t/Dose,"in vivo; oral gavage, mice, Mean (compound 6: maximum potential value with 1 nM for each time point)",165 h*nM/nmol/kg
same,Microsomal Stability Human QH,[2]; Human,>88.4 >88.4 >88.4%
same,Microsomal Stability Human,[2]; clearance in microsomes,> 88 %Qh
same,MIC (µg/ml) Mycobacterium abscessus,Mycobacterium abscessus; [4],>108.53 µg/mL
same,MIC,"Mycobacterium abscessus; Experiment 2, three replicate columns, read-out: MIC (µM) Mycobacterium abscessus",>50 µM
same,MIC,"Mycobacterium abscessus; Mycobacteroides abscessus, Experiment 1, read-out: MIC Mycobacterium abscessus",> 50 µM and > 109 µg/mL
same,MIC,"Mycobacterium abscessus; Mycobacteroides abscessus, Experiment 2, three replicate columns, read-out: MIC (µM) Mycobacterium abscessus",> 50 µM
same,MIC,"Mycobacterium abscessus; Mycobacteroides abscessus, Experiment 2, three replicate columns, read-out: MIC (µg/ml) Mycobacterium abscessus",> 109 µg/mL
same,MIC,"Mycobacterium abscessus; Mycobacteroides abscessus, mean ± SD, read-out: MIC Mycobacterium abscessus",> 50 µM
